Key:
[1] = tested on: RAW 264.7 macrophage cells; experiment: MTS cytotoxicity assay; assay type: cell-based; conditions: 4 hours incubation; particles 0.1 wt. %, DMSO 10% v/v, serum-free DMEM; mean±standard deviation
Method: The cells were cultured for 3 days to reach around 80% confluence. The media was removed from the wells and the cells were washed once with about 250 μL of PBS. […] As controls, 100 μL of serum-free DMEM supplemented with 1% penicillin-streptomycin, 100 μL of 10% v/v DMSO in serum-free DMEM supplemented with 1% penicillin-streptomycin, 100 μL of 0.1 wt. % OVA-FITC in serum-free DMEM supplemented with 1% penicillin-streptomycin, and 100 μL of 0.1 wt. % HD particles suspensions in serum-free DMEM supplemented with 1% penicillin-streptomycin were added to the cells. The cells were incubated for 4 h at 37° C., 5% CO2 in a humidified atmosphere. 20 μL of MTS solution (Promega) was added to the wells and mixed. The plates were shaken at a horizontal distance of 1 mm for 10 seconds and read at 490 nm using a Biotek™ 800 TS absorbance reader. Statistical analysis was performed on the data using one-way analysis of variance (ANOVA) with a Bonferroni post hoc analysis. Significance level was set at p<0.05.

[2] = tested on: RAW 264.7 macrophage cells; assay type: cell-based
Method: The cells were cultured for 3 days to reach about 80% confluence. The media was removed from the wells and the cells were washed once with about 250 μL of PBS. […] As controls, cells were exposed to a) 100 μL of serum-free DMEM, b) 100 µL of 10% v/v DMSO in serum-free DMEM, and c) 100 μL of 0.1 wt. % OVA-FITC in serum-free DMEM, were added to the cells. The cells were incubated for 4 h at 37° C., 5% CO2 in a humidified atmosphere. […] After 15 min, the paraformaldehyde solution was removed, the cells were washed twice with about 250 μL of PBS, and then 100 μL of PBS was added to the fixed cells. The cells were then imaged by brightfield and confocal fluorescence microscopy

C[S+](C)[O-] [DMSO, dimethyl sulfoxide]
mean viability of RAW 264.7 cells [1]: 64±12% | cell morphology by brightfield microscopy [2]: rounded cell morphology and signs of apoptosis

— patent US20250367282A1, “POLYCATION CARRIER PARTICLE” (ALLARTA LIFE SCIENCE INC., priority 2022, published 2025)
